# Laboratory results published in patent publication US20070082945A1, “Discodermolide compositions” (priority 2003, published 2007).
# Read-outs that look alike come from different tables or passages of the source.
# Assays:
# [1] = test system: purified tubulin; conditions: among the compounds known to induce polymerization; cited from earlier work
# [2] = Precipitation on direct i.v. infusion followed by normal saline flush; conditions: direct i.v. infusion into the vein followed by a normal saline flush
# Protocol: Preferably the infusion solution of the present invention is prepared by mixing the infusion concentrate with a diluent, such as 16.3% w/v ethanol in saline in a suitable container. A preferred formulation comprises 1 mL of 2 mg/mL infusion concentrate diluted with 1.6 mL of 16.3% w/v ethanol in saline to yield an infusion solution containing 0.77 mg/mL discodermolide in 40% propylene glycol, 10% ethanol and 50% normal saline. This solution is administered via i.v. infusion, or push into Y tubing containing a 0.9% normal saline drip, directly into the vein and the drug solution residue in the tubing will be flushed with normal saline. The volume of discodermolide solution given via i.v. push will vary from 0.3 mL (at the starting does of 0.2 mg or 0.13 mg/m^2) to 26 mL (for a dose of 20 mg or 11.43 mg/m^2) or 43 mL (for a dose of 33 mg or 19.2 mg/m^2).
# [3] = test system: microtubules; conditions: compared with paclitaxel; cited from earlier work
# [4] = Stability of 16 mg/mL infusion concentrate in propylene glycol (HPLC, UV detector), Example 13; type: physicochemical; conditions: for Assay / Total Impurities: 16 mg/mL infusion concentrate in PG
# Protocol: The stability of an infusion concentrate of 16 mg/mL in propylene glycol at different temperatures is determined. Table 3 describes the amount of degradation product formed over a period of up to 12 weeks. The stability is analyzed by determining formation of degradation products in each of the infusion concentrates as a function of time and temperature. Each sample is analyzed by HPLC with a UV detector.
# [5] = Stability of propylene glycol infusion concentrates (HPLC, UV detector), Example 12; type: physicochemical
# Protocol: The stability of propylene glycol infusion concentrates comprising discodermolide at different concentrations and various temperatures is determined. The stability is analyzed by determining formation of degradation products in each of the infusion concentrates as a function of time and temperature. Each sample is analyzed by HPLC with a UV detector. […] Under accelerated conditions, the levels of impurities increased at both 25° C./60% relative humidity (RH) and 45° C./60% RH.
# [6] = Solubility and stability in 40% PG/10% ethanol/50% normal saline with hydrotropic agents; type: physicochemical; conditions: aqueous with cosolvent or surfactant or cyclodextrin, read-out: Discodermolide Solubility
# From the text: The solubility and stability of discodermolide in 40% propylene glycol/10% ethanol 50% normal saline diluted with hydrotropic agents is shown in Table 7.
# [7] = 0.6 mg/mL infusion concentrate in PG, 0-time
# [8] = 0.6 mg/mL infusion concentrate in PG, 5° C., 0.5 month
# [9] = 0.6 mg/mL infusion concentrate in PG, 5° C., 1 month
# [10] = 0.6 mg/mL infusion concentrate in PG, 5° C., 2 months
# [11] = 0.6 mg/mL infusion concentrate in PG, 5° C., 3 months
# [12] = 0.6 mg/mL infusion concentrate in PG, 25° C./60% RH, 0.5 month
# [13] = 0.6 mg/mL infusion concentrate in PG, 25° C./60% RH, 1 month
# [14] = 0.6 mg/mL infusion concentrate in PG, 25° C./60% RH, 2 months
# [15] = 0.6 mg/mL infusion concentrate in PG, 25° C./60% RH, 3 months
# [16] = 0.6 mg/mL infusion concentrate in PG, 45° C./60% RH, 0.5 month
# [17] = 0.6 mg/mL infusion concentrate in PG, 45° C./60% RH, 1 month
# [18] = 2.0 mg/mL infusion concentrate in PG, 0-time
# [19] = 2.0 mg/mL infusion concentrate in PG, 5° C., 0.5 month
# [20] = 2.0 mg/mL infusion concentrate in PG, 5° C., 1 month
# [21] = 2.0 mg/mL infusion concentrate in PG, 5° C., 2 months
# [22] = 2.0 mg/mL infusion concentrate in PG, 5° C., 3 months
# [23] = 2.0 mg/mL infusion concentrate in PG, 25° C./60% RH, 0.5 month
# [24] = 2.0 mg/mL infusion concentrate in PG, 25° C./60% RH, 1 month
# [25] = 2.0 mg/mL infusion concentrate in PG, 25° C./60% RH, 2 months
# [26] = 2.0 mg/mL infusion concentrate in PG, 25° C./60% RH, 3 months
# [27] = 2.0 mg/mL infusion concentrate in PG, 45° C./60% RH, 0.5 month
# [28] = 2.0 mg/mL infusion concentrate in PG, 45° C./60% RH, 1 month
# [29] = 3.0 mg/mL infusion concentrate in PG, 0-time
# [30] = 3.0 mg/mL infusion concentrate in PG, 5° C., 0.5 month
# [31] = 3.0 mg/mL infusion concentrate in PG, 5° C., 1 month
# [32] = 3.0 mg/mL infusion concentrate in PG, 5° C., 2 months
# [33] = 3.0 mg/mL infusion concentrate in PG, 5° C., 3 months
# [34] = 3.0 mg/mL infusion concentrate in PG, 25° C./60% RH, 0.5 month
# [35] = 3.0 mg/mL infusion concentrate in PG, 25° C./60% RH, 1 month
# [36] = 3.0 mg/mL infusion concentrate in PG, 25° C./60% RH, 2 months
# [37] = 3.0 mg/mL infusion concentrate in PG, 25° C./60% RH, 3 months
# [38] = 3.0 mg/mL infusion concentrate in PG, 45° C./60% RH, 0.5 month
# [39] = 3.0 mg/mL infusion concentrate in PG, 45° C./60% RH, 1 month
smiles,measurement,setting,value
"C=C/C=C\C(C)[C@H](OC(N)=O)[C@@H](C)[C@H](O)[C@@H](C)C/C(C)=C\C(C)C(O)[C@@H](C)/C=C\[C@@H](O)C[C@@H]1OC(=O)[C@H](C)C(O)C1C (single isomer, unassigned; (+)) [discodermolide, (+)-Discodermolide]",Potency to induce polymerization of purified tubulin,[1],the most potent
same,Precipitation on administration,[2],will not cause any precipitation
same,Effectiveness in mechanism-based assays,[3],more effective than paclitaxel
same,Assay,[4]; 0-time,103.9 % label claim
same,Total Impurities,[4]; 0-time,0.59%
same,Assay,"[4]; 5° C., 4 weeks",102.2 % label claim
same,Total Impurities,"[4]; 5° C., 4 weeks",0.60%
same,Assay,"[4]; 5° C., 8 weeks",101.4 % label claim
same,Total Impurities,"[4]; 5° C., 8 weeks",0.48%
same,Assay,"[4]; 5° C., 12 weeks",100.7 % label claim
same,Total Impurities,"[4]; 5° C., 12 weeks",0.49%
same,Assay,"[4]; 25° C./60% RH, 3 weeks",100.7 % label claim
same,Total Impurities,"[4]; 25° C./60% RH, 3 weeks",0.56%
same,Assay,"[4]; 25° C./60% RH, 4 weeks",103.6 % label claim
same,Total Impurities,"[4]; 25° C./60% RH, 4 weeks",0.66%
same,Assay,"[4]; 25° C./60% RH, 8 weeks",100.5 % label claim
same,Total Impurities,"[4]; 25° C./60% RH, 8 weeks",0.68%
same,Assay,"[4]; 25° C./60% RH, 12 weeks",100.1 % label claim
same,Total Impurities,"[4]; 25° C./60% RH, 12 weeks",0.65%
same,Assay,"[4]; 50° C./75% RH, 3 weeks",99.4 % label claim
same,Total Impurities,"[4]; 50° C./75% RH, 3 weeks",0.65%
same,Assay,"[4]; 50° C./75% RH, 4 weeks",101.6 % label claim
same,Total Impurities,"[4]; 50° C./75% RH, 4 weeks",0.65%
same,Assay,"[4]; 50° C./75% RH, 8 weeks",99.5 % label claim
same,Total Impurities,"[4]; 50° C./75% RH, 8 weeks",0.65%
same,Assay,"[4]; 50° C./75% RH, 12 weeks",99.2 % label claim
same,Total Impurities,"[4]; 50° C./75% RH, 12 weeks",0.62%
same,Degradation profile and long term stability,[4]; 16 mg/mL infusion concentrate in propylene glycol,comparable to 2.0 mg/mL
same,Assay,[5]; [7],100.4 % label claim
same,Total Impurities,[5]; [7],0.18%
same,Assay,[5]; [8],103.2 % label claim
same,Total Impurities,[5]; [8],0.16%
same,Assay,[5]; [9],102.6 % label claim
same,Total Impurities,[5]; [9],0.19%
same,Assay,[5]; [10],103.3 % label claim
same,Total Impurities,[5]; [10],0.27%
same,Assay,[5]; [11],103.8 % label claim
same,Total Impurities,[5]; [11],0.29%
same,Assay,[5]; [12],102.8 % label claim
same,Total Impurities,[5]; [12],0.65%
same,Assay,[5]; [13],101.9 % label claim
same,Total Impurities,[5]; [13],1.08%
same,Assay,[5]; [14],102.5 % label claim
same,Total Impurities,[5]; [14],1.18%
same,Assay,[5]; [15],102.4 % label claim
same,Total Impurities,[5]; [15],1.43%
same,Assay,[5]; [16],102.0 % label claim
same,Total Impurities,[5]; [16],1.49%
same,Assay,[5]; [17],101.6 % label claim
same,Total Impurities,[5]; [17],1.91%
same,Assay,[5]; [18],99.9 % label claim
same,Total Impurities,[5]; [18],0.19%
same,Assay,[5]; [19],103.2 % label claim
same,Total Impurities,[5]; [19],0.16%
same,Assay,[5]; [20],100.5 % label claim
same,Total Impurities,[5]; [20],0.18%
same,Assay,[5]; [21],102.5 % label claim
same,Total Impurities,[5]; [21],0.18%
same,Assay,[5]; [22],101.0 % label claim
same,Total Impurities,[5]; [22],0.54%
same,Assay,[5]; [23],101.1 % label claim
same,Total Impurities,[5]; [23],0.55%
same,Assay,[5]; [24],99.6 % label claim
same,Total Impurities,[5]; [24],0.78%
same,Assay,[5]; [25],101.4 % label claim
same,Total Impurities,[5]; [25],1.18%
same,Assay,[5]; [26],100.9 % label claim
same,Total Impurities,[5]; [26],1.48%
same,Assay,[5]; [27],100.3 % label claim
same,Total Impurities,[5]; [27],1.17%
same,Assay,[5]; [28],100.0 % label claim
same,Total Impurities,[5]; [28],1.69%
same,Assay,[5]; [29],102.7 % label claim
same,Total Impurities,[5]; [29],0.19%
same,Assay,[5]; [30],101.5 % label claim
same,Total Impurities,[5]; [30],0.16%
same,Assay,[5]; [31],102.0 % label claim
same,Total Impurities,[5]; [31],0.19%
same,Assay,[5]; [32],104.1 % label claim
same,Total Impurities,[5]; [32],0.17%
same,Assay,[5]; [33],104.4 % label claim
same,Total Impurities,[5]; [33],0.29%
same,Assay,[5]; [34],102.4 % label claim
same,Total Impurities,[5]; [34],0.35%
same,Assay,[5]; [35],101.3 % label claim
same,Total Impurities,[5]; [35],0.52%
same,Assay,[5]; [36],103.1 % label claim
same,Total Impurities,[5]; [36],0.69%
same,Assay,[5]; [37],102.1 % label claim
same,Total Impurities,[5]; [37],0.69%
same,Assay,[5]; [38],100.9 % label claim
same,Total Impurities,[5]; [38],0.58%
same,Assay,[5]; [39],101.5 % label claim
same,Total Impurities,[5]; [39],0.70%
same,Levels of impurities under accelerated conditions,[5]; 25° C./60% RH and 45° C./60% RH,increased
same,Change in discodermolide content,"[5]; PG infusion concentrates, after 3 months at 5° C.",No significant changes
same,Total impurity amounts,"[5]; PG infusion concentrates, after 3 months at 5° C., versus proposed specification limit",< 2.0%
same,solubility,[6]; 40% PG/10% EtOH/4% benzoic acid in normal saline,1.9 mg/mL
same,solubility,[6]; 40% PG/10% EtOH/4% benzoic acid/1% benzyl alcohol in normal saline,2.2 mg/mL
same,solubility,"[6]; propylene glycol/ethanol/normal saline mixture, 40% PG/10% EtOH in normal saline",0.91 mg/mL
